Consider five compounds from US3970642A, “Process for the conversion of niddamycin to leucomycin A1, leucomycin A3, carbomycin B and other antibiotics and related 3-O-esters” (Abbott Laboratories, priority 1974, dated 1976).

What all share (format): cell-based
The subject of assay [1] is Mycoplasma pneumoniae FH. The experiment in a line: Standard two-fold tube dilution test, activity against Mycoplasma pneumoniae FH. Particulars: 144 h, PPLO broth, six days at 37°C, read-out: Minimum Inhibitory Concentration. As for the experimental part: (§1) Three nid damycin and two dihydroniddamycin compounds were tested for their activity against Streptococcus pyogenes C203, and Diplococcus pneumoniae 6301 and Mycoplasma pneumoniae FH.
(§2) A standard two-fold tube dilution test was used. The medium inoculum were varied with each culture.
In the test for activity against Mycoplasma pneumoniae FH, 4.5 ml. portions of PPLO broth were used with 0.5 ml. of 1:100 dilution culture. The test was incubated for six days at 37°C.

The subject of assay [2] is Streptococcus pyogenes C203. The assay is described as follows: Standard two-fold tube dilution test, activity against Streptococcus pyogenes C203. The settings on record: brain-heart infusion broth, 24 hours at 37°C, read-out: Minimum Inhibitory Concentration. As for the experimental part: as §1, §2
In the test for activity against Streptococcus pyogenes C203, 5 ml. portions of brain-heart infusion broth were used with 0.1 ml. of 1:100 dilution culture. The test was incubated for 24 hours at 37°C.

In assay [3] the test system is Diplococcus pneumoniae 6301. The assay is described as follows: Standard two-fold tube dilution test, activity against Diplococcus pneumoniae 6301. Particulars: Streptococcus pneumoniae, brain-heart infusion broth and 20% horse serum, 24 hours at 37°C, read-out: Minimum Inhibitory Concentration. As for the experimental part:
as §1, §2
In the test for activity against Diplococcus pneumoniae 6301, 5 ml. portions of brain-heart infusion broth and 20% horse serum were used with 0.1 ml. of 1:100 dilution culture. The test was incubated for 24 hours at 37°C.

≈ marks a conversion by molar mass, not a printed value.

In the case of `COC(CC1CC(C)C(=O)C=CC=CCC(C)OC(=O)CC(O)C(OC)C1OC1OC(C)C(OC2CC(C)(O)C(OC(=O)CC(C)C)C(C)O2)C(N(C)C)C1O)OC` (stereo not drawn) [Compound 2, Niddamycin dimethyl acetal], the results for the MIC in assay [1], in assay [2] and in assay [3] were 25 µg/mL (≈ 30.1 µM), 0.78 µg/mL (≈ 0.94 µM) and below 1.56 µg/mL, respectively.

As to `COC(CC1CC(C)C(=O)C=CC=CCC(C)OC(=O)CC(OC(C)=O)C(OC)C1OC1OC(C)C(OC2CC(C)(O)C(OC(=O)CC(C)C)C(C)O2)C(N(C)C)C1OC(C)=O)OC` (stereo not drawn) [Compound 3B, 2',3-Di-(O)-acetylniddamycin dimethyl acetal], the MIC in assay [1], in assay [2] and in assay [3] was above 100 µg/mL in each case.

Regarding `COC(CC1CC(C)C(O)C=CC=CCC(C)OC(=O)CC(O)C(OC)C1OC1OC(C)C(OC2CC(C)(O)C(OC(=O)CC(C)C)C(C)O2)C(N(C)C)C1O)OC` (stereo not drawn) [Compound 4, 9-Dihydroniddamycin B dimethyl acetal], the MIC in assay [1] is 50 µg/mL (≈ 60.1 µM); in assay [2], 6.2 µg/mL (≈ 7.45 µM).

In the case of `COC(CC1CC(C)C(=O)C=CC=CCC(C)OC(=O)CC(OC(C)=O)C(OC)C1OC1OC(C)C(OC2CC(C)(O)C(OC(=O)CC(C)C)C(C)O2)C(N(C)C)C1O)OC` (stereo not drawn) [Compound 6B, 3-(O)-Acetylniddamycin dimethyl acetal], the MIC in assay [1] was 25 µg/mL (≈ 28.7 µM); in assay [2], 12.5 µg/mL (≈ 14.3 µM).

For the compound `COC(CC1CC(C)C(O)C=CC=CCC(C)OC(=O)CC(OC(C)=O)C(OC)C1OC1OC(C)C(OC2CC(C)(O)C(OC(=O)CC(C)C)C(C)O2)C(N(C)C)C1O)OC` (stereo not drawn) [Compound 8B, 3-(O)-Acetyl-9-dihydroniddamycin B dimethyl acetal], the MIC in assay [1] stood at 50 µg/mL (≈ 57.2 µM); in assay [2] it was 25 µg/mL (≈ 28.6 µM).
